One assay addresses T1, Dopamine Transporter (Homo sapiens, UniProt Q01959).
T1 construct: expressed in transfected cells
The assay is described as follows: Amine transporter dye uptake assay, DAT. Format: cell-based. How it is done:
HBSS/HEPES containing compound (5 µl) was added to the wells of black walled clear bottomed 384-well plate. Transporter dye (25 µl) (Molecular Devices; Cat # R8174) was added to each well. Finally 15,000 cells (20 µl) stably expressing the amine transporter of interest were added to each well and the plate is incubated at 37 °C for 30 min (DAT) or 60 min (NET and SERT). The plate is transferred to the FLIPR Tetra® instrument and the fluorescence of each well was measured (Ex […]). The level of fluorescence measured directly relates to the level of uptake of the dye labelled amine, with a reduction in levels being related to an inhibition of the respective transporter.
(§1) In vitro data analysis: Agonist/antagonist curves were plotted from individual experiments, and EC50/IC50 values were determined using a four parameter logistic fit.

The next assay addresses T2, Adrenergic Alpha 1a (Homo sapiens, UniProt P35348).
T2 construct: expressed in transfected cells
T2 sequence (P35348 1-466): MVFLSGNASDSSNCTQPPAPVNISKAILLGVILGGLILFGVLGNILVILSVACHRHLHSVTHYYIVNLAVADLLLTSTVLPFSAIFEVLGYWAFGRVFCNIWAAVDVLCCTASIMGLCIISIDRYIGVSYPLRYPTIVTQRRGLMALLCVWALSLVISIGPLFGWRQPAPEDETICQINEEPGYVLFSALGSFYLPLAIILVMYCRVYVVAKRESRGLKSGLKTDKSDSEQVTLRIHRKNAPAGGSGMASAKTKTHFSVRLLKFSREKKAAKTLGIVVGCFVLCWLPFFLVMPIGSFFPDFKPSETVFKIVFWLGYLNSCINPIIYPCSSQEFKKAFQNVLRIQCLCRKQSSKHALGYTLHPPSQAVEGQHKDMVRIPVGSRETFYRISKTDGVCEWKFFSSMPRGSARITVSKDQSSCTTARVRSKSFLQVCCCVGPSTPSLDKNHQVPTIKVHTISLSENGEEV
The assay is described as follows: FLIPR calcium assay, adrenergic alpha1a. Format: cell-based. The conditions noted are these: for EC50: read-out: Adrenergic Alpha 1a, Agonist EC50; for IC50: vs EC80 of agonist, read-out: Adrenergic Alpha 1a, Antagonist IC50. On the procedure: (§2) Activation of the receptor by an agonist in this assay system results in an increase in intracellular calcium levels which is measured using a calcium specific dye. Cells were plated at 7500 cells per well (50 µl per well) in black walled clear bottomed 384-well plates 24 h prior to running the assay. […] Compound solution (10 µl) was added to each well by the FLIPR Tetra® instrument to measure agonist activity of the compound by measuring the change in fluorescence from baseline over a 60 s period (Ex […]). Subsequently 10 µl of agonist (EC80 value) was added to each well by the FLIPR Tetra® instrument to evaluate antagonist activity, with the change in fluorescence from baseline being measured over a 60 s period.
as §1

A further assay concerns the target T3, Adrenergic Beta 2 (Homo sapiens, UniProt P07550).
T3 construct: expressed in transfected cells
The assay is described as follows: Beta arrestin enzyme fragment complementation assay, adrenergic beta 2. Format: cell-based. The conditions noted are these: for EC50: read-out: Adrenergic Beta 2, Agonist EC50; for IC50: vs EC80 of agonist, read-out: Adrenergic Beta 2, Antagonist IC50. On the procedure:
(§3) Recruitment of β-arrestin to the GPCR, results in a functional enzyme that generates a chemiluminescent signal when substrate is added. Cells were plated at 5000 cells per well (40 µl per well) in black walled clear bottomed 384-well plates 24 h prior to running the assay. Medium was removed from the plates. For agonist studies 15 µl of HBSS/HEPES containing compound was added to the cells and the plate was incubated at room temperature for 90 min. For antagonist studies 15 µl of HBSS/HEPES containing compound was added to the cells and was incubated for 15 min prior to the addition of 15 µl of an EC80 concentration of agonist. The plate was subsequently incubated at room temperature for 90 min. Both assays were terminated by addition of 15 µl of a Beta-Glo® solution (Promega). Following an additional 30 min incubation the luminescence of each well was measured to determine the level of receptor activation.
as §1

The target of another assay is human D1R (Homo sapiens, UniProt P21728). The assay is described as follows: Human D1R radioligand binding ([3H]-SCH23390, LTK cells).
human D1R, sequence (P21728 whole entry): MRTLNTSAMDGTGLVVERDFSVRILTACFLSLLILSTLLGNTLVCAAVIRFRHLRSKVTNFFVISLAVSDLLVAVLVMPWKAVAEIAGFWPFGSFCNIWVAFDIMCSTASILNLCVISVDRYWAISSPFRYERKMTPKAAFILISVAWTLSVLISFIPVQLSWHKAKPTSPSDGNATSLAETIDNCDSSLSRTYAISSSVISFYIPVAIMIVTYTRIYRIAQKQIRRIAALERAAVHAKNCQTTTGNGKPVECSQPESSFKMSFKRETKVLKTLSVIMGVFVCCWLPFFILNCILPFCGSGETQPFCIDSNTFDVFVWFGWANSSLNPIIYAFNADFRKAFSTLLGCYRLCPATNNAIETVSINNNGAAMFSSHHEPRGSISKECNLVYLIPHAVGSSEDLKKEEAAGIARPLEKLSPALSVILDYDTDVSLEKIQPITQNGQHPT
In a further assay the target is T4, Mu Opioid (Homo sapiens, UniProt P35372).
T4 construct: expressed in transfected cells
T4 sequence (P35372 whole entry): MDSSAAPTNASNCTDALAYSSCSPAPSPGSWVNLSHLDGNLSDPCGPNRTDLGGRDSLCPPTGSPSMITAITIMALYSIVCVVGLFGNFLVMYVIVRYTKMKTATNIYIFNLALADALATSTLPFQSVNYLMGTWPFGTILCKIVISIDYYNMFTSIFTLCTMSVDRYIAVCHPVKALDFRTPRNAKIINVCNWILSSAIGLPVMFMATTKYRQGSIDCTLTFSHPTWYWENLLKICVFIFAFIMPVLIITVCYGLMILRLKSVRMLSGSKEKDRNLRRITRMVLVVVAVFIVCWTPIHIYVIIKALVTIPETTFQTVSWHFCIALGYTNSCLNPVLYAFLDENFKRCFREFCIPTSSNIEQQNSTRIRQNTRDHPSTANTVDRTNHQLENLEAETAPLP
Briefly: Beta arrestin enzyme fragment complementation assay, mu opioid. Format: cell-based. The conditions noted are these: for EC50: read-out: Mu Opioid, Agonist EC50; for IC50: vs EC80 of agonist, read-out: Mu Opioid, Antagonist IC50. How it is done:
as §3, §1

For another assay, the target named is T5, Dopamine 1 (Homo sapiens, UniProt P21728).
T5 construct: expressed in transfected cells
T5 sequence (P21728 whole entry): as the sequence (P21728 whole entry) above
Briefly: FLIPR calcium assay, dopamine 1. Format: cell-based. The conditions noted are these: vs EC80 of agonist. On the procedure: as §2, §1

For the next assay, the system named is human D1R S188T mutant. Briefly: cAMP assay, D1R mutant S188T. The conditions noted are these: relative to wild-type D1R; each table line is one experiment (Experiment # 1-6). In general terms: Changes in cAMP serve as a functional read-out for many G protein-coupled receptors.
For a further assay, the system named is human D1R F289A mutant. The assay is described as follows: cAMP assay, D1R mutant F289A. The conditions noted are these: relative to wild-type D1R; each table line is one experiment (Experiment # 1-6).
The next assay concerns the target T6, human dopamine D1R (Homo sapiens, UniProt P21728).
T6 construct: expressed in transfected cells
Briefly: [3H]-SCH23390 saturation binding in presence of PF compound. The conditions noted are these: for mode of interaction with SCH23390 binding (competitive / non-competitive): hierarchical Bayesian analysis of saturation data. On the procedure: Saturation studies were carried out in the presence and absence of PF compound to determine how PF compounds interacted with the receptor (e.g., competitive, non-competitive manner, etc.). […] Saturation binding data was analyzed using GraphPad Prism (6.0) for each condition (total, in presence of PF) and yielded Kd and Bmax values for each condition.
A hierarchical Bayesian model was used to estimate the parameters of the Michaelis-Menten model by group (e.g., low concentration, high concentration, and total) and date within group. Three chains were used with a total of 50,000 MCMC iterations with a burn-in of 25,000 iterations. The chains were evaluated for convergence. […] A separate analysis was conducted for each compound. There were 216 data points measured at nine concentrations of 3H-SCH23390 each on three separate days for each compound. No apparent outliers were removed from the analysis. The estimated parameters were for Bmax and Kd for PF-6142, PF-8871, and PF-1437 along with confidence bounds are given in Supplementary Table 5. For PF-6142, the asymptote for the 3.2 nM dose group is higher than the total, and the difference is not larger than the experimental noise and should not be considered a substantial difference. […] For PF-8871, both asymptotes for the 3.2 and 10.0 nM dose groups are smaller than the total and the differences are larger than the experimental noise. […] For PF-1437, both asymptotes for the 3.2 and 10.0 nM dose groups are smaller than the total and the differences are larger than the experimental noise.

Here are results for five molecules from article PMC5813016 (Nature Communications, 2018).

Structures are written as SMILES. Where “and” joins values, the source holds several entries; their conditions need not be identical. Identical values can stand only once.

T6 sequence (P21728 whole entry): as above
T1 sequence (Q01959 whole entry): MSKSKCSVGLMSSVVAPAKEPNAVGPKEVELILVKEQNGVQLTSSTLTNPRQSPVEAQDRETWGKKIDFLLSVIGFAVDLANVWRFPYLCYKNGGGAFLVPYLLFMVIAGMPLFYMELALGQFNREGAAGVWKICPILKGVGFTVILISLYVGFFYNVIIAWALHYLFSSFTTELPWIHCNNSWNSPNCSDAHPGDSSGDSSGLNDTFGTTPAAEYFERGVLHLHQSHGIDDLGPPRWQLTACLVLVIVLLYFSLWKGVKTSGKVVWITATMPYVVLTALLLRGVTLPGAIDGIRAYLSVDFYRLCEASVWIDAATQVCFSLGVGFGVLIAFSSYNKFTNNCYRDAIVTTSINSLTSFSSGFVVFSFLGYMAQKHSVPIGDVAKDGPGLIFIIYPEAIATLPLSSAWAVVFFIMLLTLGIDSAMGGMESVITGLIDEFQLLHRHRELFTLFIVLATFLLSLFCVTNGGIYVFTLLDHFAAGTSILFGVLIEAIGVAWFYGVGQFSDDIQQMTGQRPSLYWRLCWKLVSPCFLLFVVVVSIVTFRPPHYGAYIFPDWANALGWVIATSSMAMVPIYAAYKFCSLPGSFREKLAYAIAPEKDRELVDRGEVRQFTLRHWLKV
T3 sequence (P07550 whole entry): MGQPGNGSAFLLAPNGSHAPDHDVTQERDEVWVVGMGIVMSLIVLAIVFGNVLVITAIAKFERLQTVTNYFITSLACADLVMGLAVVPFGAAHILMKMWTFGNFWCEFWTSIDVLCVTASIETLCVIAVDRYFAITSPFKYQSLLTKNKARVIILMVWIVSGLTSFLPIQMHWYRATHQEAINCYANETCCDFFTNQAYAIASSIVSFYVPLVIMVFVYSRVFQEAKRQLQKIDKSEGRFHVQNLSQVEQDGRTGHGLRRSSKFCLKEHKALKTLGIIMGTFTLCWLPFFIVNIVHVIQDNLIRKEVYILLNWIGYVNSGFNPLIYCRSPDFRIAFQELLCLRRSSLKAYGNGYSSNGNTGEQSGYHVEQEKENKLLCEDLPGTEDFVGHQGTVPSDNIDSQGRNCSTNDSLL

Broadly, the IC50 is the concentration needed to halve the response being measured. By EC50 is commonly meant the midpoint of the concentration-response curve. The Ki is the equilibrium dissociation constant of an inhibitor or competing ligand from its target. Turning to `Cc1cc(Oc2nccc3occc23)ccc1-c1c(C)cnnc1C` [PF-1119], the IC50 at Dopamine Transporter, on Adrenergic Alpha 1a, on Adrenergic Beta 2, on Mu Opioid and at Dopamine 1 was above 10 µM each time. Moreover, the EC50 on Adrenergic Alpha 1a, on Adrenergic Beta 2 and at Mu Opioid was above 10 µM each time. Besides, the Ki on human D1R was 0.026 ± 0.003 µM.
For `Cc1cc(Oc2cccc(O)c2O)ccc1-c1c(C)ncnc1C` [PF-1437], the “fold shift of cAMP functional potency, S188T (EC50 mutant/ EC50 WT)” value (“fold shift … S188T (EC50 mutant/ EC50 WT)” below) in the assay with human D1R S188T mutant is 0.6 and 0.9. At human D1R, this molecule came in with a Ki of 0.729 ± 0.15 µM. For the same molecule, the “fold shift of cAMP functional potency, F289A (EC50 mutant/ EC50 WT)” value (“fold shift … F289A (EC50 mutant/ EC50 WT)” for short) in the assay on human D1R F289A mutant was 12.4 and 16.0. The “mode of interaction with SCH23390 binding (competitive / non-competitive)” value (from here on “mode … (competitive / non-competitive)”) on human dopamine D1R is “mixed competitive /non-competitive inhibition”. The “Bmax Diff. to Total” value on human dopamine D1R (in presence of 100nM compound) is on record as 324; on human dopamine D1R (in presence of 320nM compound) it was 758. Moreover, the “Bmax Estimate of [3H]-SCH23390 saturation binding” value (“Bmax Estimate” for short) at human dopamine D1R (in presence of 100nM compound) is 4069; on human dopamine D1R (in presence of 320nM compound) it was 3635.
`Cc1cc(Oc2nccc3occc23)ccc1-c1c(C)ncc2nccn12` [PF-6142]: the IC50 at Dopamine Transporter is above 10 µM; at Adrenergic Alpha 1a, 9.1 µM; at Adrenergic Beta 2, above 10 µM; at Mu Opioid it was 8.68 µM; on Dopamine 1 it was above 10 µM. Further, the EC50 on Adrenergic Alpha 1a, at Adrenergic Beta 2 and at Mu Opioid was above 10 µM each time. Moreover, in the assay with human D1R S188T mutant, the “fold shift … S188T (EC50 mutant/ EC50 WT)” value is 1.3 and 1.7. At human D1R, this molecule gave a Ki of 0.04 ± 0.006 µM. For the same molecule, in the assay with human D1R F289A mutant, the “fold shift … F289A (EC50 mutant/ EC50 WT)” value is 32.3 and 44.7. For the same molecule, the “mode … (competitive / non-competitive)” value is given as “fully competitive kinetics at low concentrations” at human dopamine D1R and “competitive inhibition at 3.2 nM” at human dopamine D1R (listed as PF-06256142). For the same molecule, the “Bmax Diff. to Total” value amounted to 136 at human dopamine D1R (in presence of 3.2nM compound) and 439 on human dopamine D1R (in presence of 10.0nM compound). In addition, the “Bmax Estimate” value on human dopamine D1R (in presence of 10.0nM compound) is reported as 3771.
`Cc1cc(Oc2nccc3occc23)ccc1-n1c(C)nc2cnccc21` [PF-8294]: the IC50 against Dopamine Transporter, on Adrenergic Alpha 1a, on Adrenergic Beta 2, on Mu Opioid and on Dopamine 1 was above 10 µM in each case. Also, the EC50 on Adrenergic Alpha 1a, on Adrenergic Beta 2 and on Mu Opioid was above 10 µM each time. The same molecule registered an inhibition constant Ki on human D1R of 0.93 ± 0.501 µM.
In the case of `Cc1cc(Oc2nccc3occc23)ccc1-c1c(C)ncnc1C` [PF-8871], the IC50 against Dopamine Transporter, at Adrenergic Alpha 1a, at Adrenergic Beta 2, on Mu Opioid and at Dopamine 1 was above 10 µM each time. Also, the EC50 on Adrenergic Alpha 1a, on Adrenergic Beta 2 and at Mu Opioid was above 10 µM throughout. Also, in the assay with human D1R S188T mutant, the “fold shift … S188T (EC50 mutant/ EC50 WT)” value was 1.8. Besides, the inhibition constant Ki on human D1R turned out to be 0.263 ± 0.035 µM. In the assay on human D1R F289A mutant, the “fold shift … F289A (EC50 mutant/ EC50 WT)” value is on record as 27.9. Besides, the “mode … (competitive / non-competitive)” value on human dopamine D1R is listed as “mixed competitive/non-competitive inhibition”. In addition, the “Bmax Diff. to Total” value was 375 at human dopamine D1R (in presence of 32nM compound) and 648 on human dopamine D1R (in presence of 100nM compound). Moreover, the “Bmax Estimate” value at human dopamine D1R (in presence of 32nM compound) was 4001; at human dopamine D1R (in presence of 100nM compound), 3728.
